Experiments:
Assay type in all cases: cell-based
W1282X-CFTR [1] = target: T1, W1282X-CFTR (Homo sapiens, UniProt P13569); assay: Short-circuit current in FRT cells expressing W1282X-CFTR; conditions: VX-809-corrected W1282X-CFTR-expressing FRT cells; for increase in VX-770 current: forskolin and 5 μM VX-770; for EC50: in the presence of forskolin and 5 μM VX-770
T1 construct: expressed in transfected cells
Procedure: Given the utility of co-potentiators as possible CF therapeutics for several minimal function CFTR mutants, a screen was done to identify novel co-potentiator scaffolds. Screening used FRT cells stably expressing W1282X-CFTR and the halide-sensitive EYFP-H148Q/I152L/F46L (YFP) that were treated for 24 hours with 3 μM VX-809 to increase CFTR1281 cell surface expression (Fig. 4A). Just prior to assay cells were treated for 10 min with test compounds at 25 μM together with 20 μM forskolin and 15 nM VX-770. CFTR channel activity was deduced from the initial rate of YFP fluorescence quenching in response to addition of iodide-substituted phosphate buffered saline. Primary screening of 120,000 drug-like synthetic small molecules identified 212 compounds giving channel activity >50% of that produced by forskolin, VX-770 and 20 μM ASP-11 (Fig. 4B). […] Each of these compounds added to VX-809-corrected FRT cells expressing W1282X-CFTR produced little current without VX-770 (Fig. 4E).
Figure 4 Novel co-potentiators identified by high-throughput screening. (A) Assay design. (B) Summary of screening workflow and results. (C) Chemical structures of novel co-potentiators identified by screening. (D) Representative short-circuit current data in FRT cells expressing W1282X-CFTR. Concentrations: 20 μM forskolin (fsk), 5 μM VX-770 (n = 3). (E) Effects of sequential addition of 20 μM forskolin followed by 20 μM of A-01, B-01, C-01 and D-01, and 5 μM of VX-770 in FRT cells expressing W1282X-CFTR. CFTRinh-172 was used at 10 μM in all experiments.
(§1) Short-circuit current was measured on cells cultured on Snapwell clear permeable supports (Corning) as described[10],[11]. Hemichambers were connected to a DVC-1000 voltage clamp (World Precision Instruments Inc., Sarasota, FL) via Ag/AgCl electrodes and 3 M KCl agar bridges for recording of the short-circuit current. For human airway epithelial cells, symmetrical HCO3^−-buffered solutions (in mM: 120 NaCl, 5 KCl, 1 MgCl2, 1 CaCl2, 5 Hepes, 25 NaHCO3, 10 glucose, pH 7.4) for basolateral and apical side were used. For FRT cells, the basolateral membrane was permeabilized with 250 μg/ml amphotericin B, and experiments were done with a chloride gradient using a HCO3^−-buffered solutions (Basolateral (mM): 120 NaCl, 5 KCl, 1 MgCl2, 1 CaCl2, 5 Hepes, 25 NaHCO3, 10 glucose, pH 7.4; apical (mM): 60 NaCl, 60 mM sodium gluconate, 5 KCl, 1 MgCl2, 1 CaCl2, 5 Hepes, 25 NaHCO3, 10 glucose, pH 7.4). All cells were equilibrated with 95% O2, 5% CO2 and maintained at 37 °C during experiments.

W1282X-CFTR [2] = target: T1, W1282X-CFTR; assay: Structure-activity testing of analogs in FRT cells expressing W1282X-CFTR
Procedure: To establish structure-activity relationships, 240 commercially available piperidinepyridoindole analogs and 160 pyrazoloquinoline analogs were tested in FRT cells expressing W1282X-CFTR. In general, the methoxy substituent on the 4-position (R^3) on the pyridoindole ring increased potency (compare A01 vs A534). N-methylation on the pyridoindole ring abolished activity (compare A534 vs A600). For substituent R^1 on the piperidine ring, substituted benzyl gave greatest activity (A061 and A662). Other R^1 substituents, including sulfonamide (A145), alkyl (A764) and carbocyclic (A714), reduced activity. Changing the benzylic carbon from methylene (CH2) to ketone (C=O) abolished activity (A815, A350 and A956).
For R^3, pyridine (D003), benzyl (D035) and substituted methyl-pyrazole (D086) abolished activity. […] The D123 pyrazoloquinoline with R^3 substituted with thiophene-quinoline heterocycle gave the best potency.

Q1313X-CFTR = target: T2, Q1313X-CFTR (Homo sapiens, UniProt P13569); assay: Short-circuit current in FRT cells expressing Q1313X-CFTR; conditions: Q1313X-CFTR FRT cells, 20 μM forskolin; for short-circuit current response when added after VX-770: 5 μM VX-770, 20 μM P2, P3, P5, ASP-11, 25 μM apigenin
T2 construct: expressed in transfected cells
T2 sequence (P13569 1-1312 limits assumed): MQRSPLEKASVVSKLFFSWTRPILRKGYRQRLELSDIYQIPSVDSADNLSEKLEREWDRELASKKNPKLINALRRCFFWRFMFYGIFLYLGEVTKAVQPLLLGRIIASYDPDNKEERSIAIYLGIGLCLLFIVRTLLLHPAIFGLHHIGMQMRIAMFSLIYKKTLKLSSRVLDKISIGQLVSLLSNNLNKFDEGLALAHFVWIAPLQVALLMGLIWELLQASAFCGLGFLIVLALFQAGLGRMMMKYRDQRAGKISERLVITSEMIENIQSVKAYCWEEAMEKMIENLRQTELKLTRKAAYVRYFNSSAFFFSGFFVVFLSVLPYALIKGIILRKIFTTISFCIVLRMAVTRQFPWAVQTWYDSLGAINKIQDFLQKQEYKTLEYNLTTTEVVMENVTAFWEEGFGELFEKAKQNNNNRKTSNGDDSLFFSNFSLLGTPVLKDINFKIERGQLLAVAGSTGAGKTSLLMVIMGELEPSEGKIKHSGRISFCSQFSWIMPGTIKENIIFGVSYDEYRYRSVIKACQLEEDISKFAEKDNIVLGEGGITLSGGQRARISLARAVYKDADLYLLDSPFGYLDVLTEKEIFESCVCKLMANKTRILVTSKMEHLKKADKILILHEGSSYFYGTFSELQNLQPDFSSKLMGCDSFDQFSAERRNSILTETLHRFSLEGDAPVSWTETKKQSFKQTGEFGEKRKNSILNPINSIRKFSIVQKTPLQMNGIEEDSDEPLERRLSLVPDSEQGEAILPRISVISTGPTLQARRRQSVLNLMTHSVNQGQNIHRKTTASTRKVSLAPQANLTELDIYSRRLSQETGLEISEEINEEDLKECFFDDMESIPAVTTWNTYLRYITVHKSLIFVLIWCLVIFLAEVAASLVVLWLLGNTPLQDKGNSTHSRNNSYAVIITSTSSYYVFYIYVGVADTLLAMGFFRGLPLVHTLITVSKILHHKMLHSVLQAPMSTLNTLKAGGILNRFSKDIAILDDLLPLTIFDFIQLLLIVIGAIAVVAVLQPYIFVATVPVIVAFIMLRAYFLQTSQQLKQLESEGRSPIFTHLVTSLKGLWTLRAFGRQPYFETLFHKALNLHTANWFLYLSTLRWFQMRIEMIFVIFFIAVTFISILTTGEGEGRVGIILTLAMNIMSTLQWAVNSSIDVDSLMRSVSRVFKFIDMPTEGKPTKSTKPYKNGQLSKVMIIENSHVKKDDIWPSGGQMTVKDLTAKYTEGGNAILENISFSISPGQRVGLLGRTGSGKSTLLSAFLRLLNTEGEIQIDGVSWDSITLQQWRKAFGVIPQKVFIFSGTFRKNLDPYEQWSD
Procedure: As shown in Fig. 1C and summarized in Fig. 2, ASP-11 acted in synergy with VX-770 to increase chloride current in FRT cells expressing the NBD2 mutations I1234del- and Q1313X-CFTR by ~3–9-fold compared to VX-770. I1234del- and Q1313X-CFTR-expressing cells were also treated with VX-809 for 24 hours (to consider the effect of available CFTR therapeutics) with 2–3-fold greater currents observed.
Studies on FRT cells expressing Q1313X-CFTR produced similar data (Fig. 3C).
(§2) Figures 5C,D show data in N1303K- and Q1313X-expressing FRT cells.
as §1

N1303K-CFTR = target: T3, N1303K-CFTR (Homo sapiens, UniProt P13569, N1303K); assay: Short-circuit current in FRT cells expressing N1303K-CFTR; conditions: N1303K-CFTR FRT cells; for short-circuit current response when added after VX-770: 20 μM forskolin, 5 μM VX-770, then 20 μM compound
T3 construct: expressed in transfected cells
T3 sequence (P13569 whole entry N1303K): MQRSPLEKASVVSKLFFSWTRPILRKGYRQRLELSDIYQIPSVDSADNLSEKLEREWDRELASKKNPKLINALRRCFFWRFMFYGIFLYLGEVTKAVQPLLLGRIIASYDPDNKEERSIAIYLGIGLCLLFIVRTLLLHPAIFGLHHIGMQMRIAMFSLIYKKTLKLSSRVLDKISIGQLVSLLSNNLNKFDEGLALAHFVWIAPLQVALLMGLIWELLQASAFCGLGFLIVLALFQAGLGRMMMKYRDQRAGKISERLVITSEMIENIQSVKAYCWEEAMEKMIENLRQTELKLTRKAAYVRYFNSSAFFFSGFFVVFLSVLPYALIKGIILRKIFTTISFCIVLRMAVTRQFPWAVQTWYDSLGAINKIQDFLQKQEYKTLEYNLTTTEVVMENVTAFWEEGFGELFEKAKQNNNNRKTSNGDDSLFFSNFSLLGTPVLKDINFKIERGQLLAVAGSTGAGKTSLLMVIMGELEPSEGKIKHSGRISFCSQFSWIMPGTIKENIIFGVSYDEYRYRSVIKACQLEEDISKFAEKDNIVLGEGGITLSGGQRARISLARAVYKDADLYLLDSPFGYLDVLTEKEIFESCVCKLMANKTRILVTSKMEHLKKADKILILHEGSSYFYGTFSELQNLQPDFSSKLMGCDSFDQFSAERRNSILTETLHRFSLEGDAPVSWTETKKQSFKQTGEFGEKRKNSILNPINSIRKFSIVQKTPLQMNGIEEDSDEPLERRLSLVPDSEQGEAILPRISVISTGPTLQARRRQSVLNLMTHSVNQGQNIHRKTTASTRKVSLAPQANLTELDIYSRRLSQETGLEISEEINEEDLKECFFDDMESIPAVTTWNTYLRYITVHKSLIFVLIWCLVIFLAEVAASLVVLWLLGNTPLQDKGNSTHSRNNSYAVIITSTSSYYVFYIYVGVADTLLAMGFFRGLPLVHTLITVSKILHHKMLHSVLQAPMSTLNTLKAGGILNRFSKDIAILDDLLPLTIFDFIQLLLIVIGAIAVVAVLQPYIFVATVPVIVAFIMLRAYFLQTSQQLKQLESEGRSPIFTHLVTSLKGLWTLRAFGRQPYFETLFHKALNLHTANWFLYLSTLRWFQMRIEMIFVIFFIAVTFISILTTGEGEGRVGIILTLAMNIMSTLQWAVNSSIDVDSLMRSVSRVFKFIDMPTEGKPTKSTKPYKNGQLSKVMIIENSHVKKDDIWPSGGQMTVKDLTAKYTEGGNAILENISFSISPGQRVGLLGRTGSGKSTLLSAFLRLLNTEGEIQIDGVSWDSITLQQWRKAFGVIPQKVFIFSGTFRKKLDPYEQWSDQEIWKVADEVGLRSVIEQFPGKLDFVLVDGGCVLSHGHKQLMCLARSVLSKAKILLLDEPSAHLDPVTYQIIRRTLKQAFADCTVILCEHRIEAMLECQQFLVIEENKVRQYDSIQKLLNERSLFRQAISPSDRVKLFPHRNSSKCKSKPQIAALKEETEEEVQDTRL
Procedure: Based on prior studies[10],[11],[20], we hypothesized that distinct binding sites may be required to bind a potentiator and co-potentiator to rescue channel activity of CFTR mutants. We defined the potentiator VX-770 as a Class I compound, and co-potentiator ASP-11 as a Class II compound (Fig. 3A,D). Short-circuit current measurements in N1303K-CFTR-expressing FRT cells confirmed synergy when ASP-11 was added after VX-770 (Fig. 3Bi). […] In each experiment, CFTRinh-172 confirmed that current was from CFTR.
Figure 3 Definition of Class I and II CFTR potentiators. (A) Chemical structures of Class I and II potentiators. (B) Short-circuit current in FRT cells expressing N1303K-CFTR in response to forskolin and indicated potentiators. Concentrations: 20 μM forskolin, 5 μM VX-770, 20 μM ASP-11, 20 μM GLPG1837, 20 μM P2, 20 μM P3, 20 μM P5, 20 μM W1282Xpot-C01, and 10 μM CFTRinh-172. C. Short-circuit current in FRT cells expressing Q1313X-CFTR in response to forskolin and indicated potentiators. Concentrations: as in panel B, and 25 μM apigenin. (D) Summary of relative N1303K-CFTR activation in response to combinations of Class I and Class II potentiators. Mean ± S.E.M., n = 3. TEXT PRINTED IN THE PICTURE: (D) VX-770: N1303K-CFTR: P5: 1% ±1%; N1303K-CFTR: GLPG 1837: 10% ±5%; N1303K-CFTR: ASP-11: 100% ±3%; N1303K-CFTR: apigenin: 100% ±5% | (D) P5: N1303K-CFTR: VX-770: 1% ±1%; N1303K-CFTR: GLPG 1837: 2% ±2%; N1303K-CFTR: ASP-11: 52% ±5%; N1303K-CFTR: apigenin: 56% ±5% | (D) GLPG 1837: N1303K-CFTR: VX-770: 0% ±5%; N1303K-CFTR: P5: 2% ±2%; N1303K-CFTR: ASP-11: 100% ±4%; N1303K-CFTR: apigenin: 98% ±5% | (D) ASP-11: N1303K-CFTR: VX-770: 100% ±3%; N1303K-CFTR: P5: 47% ±4%; N1303K-CFTR: GLPG 1837: 100% ±5%; N1303K-CFTR: apigenin: 7% ±3% | (D) apigenin: N1303K-CFTR: VX-770: 100% ±5%; N1303K-CFTR: P5: 50% ±5%; N1303K-CFTR: GLPG 1837: 100% ±5%; N1303K-CFTR: ASP-11: 5% ±2% DOUBTS OF THE COPYIST ABOUT THIS PICTURE: Panel D is a matrix of pairs of substances (row substance combined with column substance). The picture prints no name for the measure, only % values and a 0%–100% colour scale. / The print in panel D is small, so 3, 5, 6 and 8 are hard to tell apart in these values. / VX-770 / GLPG 1837: ±5% could be ±3% / VX-770 / ASP-11: ±3% could be ±5% / VX-770 / apigenin: ±5% could be ±3% / P5 / ASP-11: 52% ±5%, digits uncertain / P5 / apigenin: 56% could be 58%, and ±5% is uncertain / GLPG 1837 / VX-770: 0% ±5%, error digit uncertain / GLPG 1837 / apigenin: 98% could be 96%, and ±5% is uncertain / ASP-11 / VX-770: ±3% could be ±5% / ASP-11 / GLPG 1837: ±5% could be ±3% / ASP-11 / apigenin: 7% ±3%, error digit uncertain / apigenin / VX-770: ±5% could be ±3% / apigenin / P5: 50% ±5%, digits uncertain / apigenin / GLPG 1837: ±5% could be ±3% / apigenin / ASP-11: 5% ±2%, the 5 is uncertain
as §2, §1

[3] = Table 1, 100% Vmax corresponds to 20 μM ASP-11
[4] = Table 1, piperidine-pyridoindole analogs

T1 sequence (P13569 1-1281 limits assumed): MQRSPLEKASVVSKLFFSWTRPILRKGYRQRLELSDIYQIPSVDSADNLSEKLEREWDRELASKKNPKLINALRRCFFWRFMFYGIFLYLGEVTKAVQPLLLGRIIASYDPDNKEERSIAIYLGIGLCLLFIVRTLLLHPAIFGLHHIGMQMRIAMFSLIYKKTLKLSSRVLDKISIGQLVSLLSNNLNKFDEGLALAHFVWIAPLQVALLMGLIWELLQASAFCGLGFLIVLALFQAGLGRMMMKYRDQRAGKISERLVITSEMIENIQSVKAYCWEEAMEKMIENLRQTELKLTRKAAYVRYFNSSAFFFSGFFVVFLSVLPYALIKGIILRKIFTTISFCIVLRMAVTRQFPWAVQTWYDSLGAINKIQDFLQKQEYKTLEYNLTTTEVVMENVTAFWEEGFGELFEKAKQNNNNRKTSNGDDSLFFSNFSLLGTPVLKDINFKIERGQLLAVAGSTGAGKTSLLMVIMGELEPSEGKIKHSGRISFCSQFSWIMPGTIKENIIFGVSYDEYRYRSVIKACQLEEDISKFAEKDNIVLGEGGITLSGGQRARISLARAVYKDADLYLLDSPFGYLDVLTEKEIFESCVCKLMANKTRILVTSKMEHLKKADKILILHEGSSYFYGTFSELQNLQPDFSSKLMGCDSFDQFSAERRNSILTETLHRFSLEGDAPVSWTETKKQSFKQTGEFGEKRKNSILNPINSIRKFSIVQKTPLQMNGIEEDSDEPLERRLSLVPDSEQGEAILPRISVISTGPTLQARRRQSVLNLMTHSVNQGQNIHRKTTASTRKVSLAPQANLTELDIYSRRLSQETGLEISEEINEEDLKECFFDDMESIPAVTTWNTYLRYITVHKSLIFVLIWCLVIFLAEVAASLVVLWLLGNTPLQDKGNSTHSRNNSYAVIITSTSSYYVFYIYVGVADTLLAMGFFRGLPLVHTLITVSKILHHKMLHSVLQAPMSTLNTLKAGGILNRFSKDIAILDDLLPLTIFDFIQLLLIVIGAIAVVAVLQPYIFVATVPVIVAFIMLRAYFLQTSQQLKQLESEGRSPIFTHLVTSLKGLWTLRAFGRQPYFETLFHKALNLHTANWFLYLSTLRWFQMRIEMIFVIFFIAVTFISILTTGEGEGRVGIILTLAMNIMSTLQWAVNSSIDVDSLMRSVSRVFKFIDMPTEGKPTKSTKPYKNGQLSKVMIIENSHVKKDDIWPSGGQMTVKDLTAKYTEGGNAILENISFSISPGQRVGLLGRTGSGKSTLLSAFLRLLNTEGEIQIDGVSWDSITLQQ

O=C(CN1C(=O)CC(c2cccs2)=Nc2ccccc21)NCc1ccc(Cl)cc1 [CP-B01]
increase in VX-770 current (W1282X-CFTR [1]): ~ 6 fold
EC50 (W1282X-CFTR [1]): 5 µM

CCCS(=O)(=O)N1CCCc2ccc(NS(=O)(=O)c3cccs3)cc21 [CP-C01]
increase in VX-770 current (W1282X-CFTR [1]): ~ 6 fold
EC50 (W1282X-CFTR [1]): 8 µM

COc1cccc(CN2CCC3(CC2)NCCc2c3[nH]c3ccc(OC)cc23)c1 [Compound A01]
Relative Vmax (%) (W1282X-CFTR [2]; [3]): 100%
EC50 (W1282X-CFTR [2]; [4]): 10 µM
increase in VX-770 current (W1282X-CFTR [1]): ~ 6 fold
EC50 (W1282X-CFTR [1]): 10 µM

COc1ccc2[nH]c3c(c2c1)CCNC31CCN(S(C)(=O)=O)CC1 [Compound A145]
Relative Vmax (%) (W1282X-CFTR [2]; [3]): 7%
EC50 (W1282X-CFTR [2]; [4]): > 30 µM

c1ccc(CN2CCC3(CC2)NCCc2c3[nH]c3ccccc23)cc1 [Compound A357]
Relative Vmax (%) (W1282X-CFTR [2]; [3]): 31%
EC50 (W1282X-CFTR [2]; [4]): 16 µM

COc1cccc(CN2CCC3(CC2)NCCc2c3[nH]c3ccccc23)c1 [Compound A534]
Relative Vmax (%) (W1282X-CFTR [2]; [3]): 24%
EC50 (W1282X-CFTR [2]; [4]): 13 µM

COc1cccc(CN2CCC3(CC2)c2[nH]c4ccccc4c2CCN3C)c1 [Compound A600]
Relative Vmax (%) (W1282X-CFTR [2]; [3]): 4%
EC50 (W1282X-CFTR [2]; [4]): > 30 µM

COc1ccc2[nH]c3c(c2c1)CCNC31CCN(Cc2ccc(F)c(F)c2)CC1 [Compound A662]
Relative Vmax (%) (W1282X-CFTR [2]; [3]): 100%
EC50 (W1282X-CFTR [2]; [4]): 2.6 µM

COc1ccc2[nH]c3c(c2c1)CCNC31CCN(C2CCCCC2)CC1 [Compound A714]
Relative Vmax (%) (W1282X-CFTR [2]; [3]): 18%
EC50 (W1282X-CFTR [2]; [4]): > 30 µM

COc1ccc2[nH]c3c(c2c1)CCNC31CCN(C)CC1 [Compound A764]
Relative Vmax (%) (W1282X-CFTR [2]; [3]): 6%
EC50 (W1282X-CFTR [2]; [4]): > 30 µM

COc1ccc2cc3c(N)nn(C(=O)c4ccccc4Cl)c3nc2c1 [Compound D001]
Relative Vmax (%) (W1282X-CFTR [2]; Table 2, 100% Vmax corresponds to 20 μM ASP-11): 90%
EC50 (W1282X-CFTR [2]; Table 2, pyrazoloquinoline analogs): 15 µM
increase in VX-770 current (W1282X-CFTR [1]): ~ 6 fold
EC50 (W1282X-CFTR [1]): 15 µM

CC(C)c1ccc(NC(=O)C(c2ccccc2)N(C)C(=O)Cc2c[nH]c3ccccc23)cc1 (stereo not drawn) [Compound P2]
short-circuit current response when added after VX-770 (Q1313X-CFTR): did not elevate current
short-circuit current response when added after VX-770 (N1303K-CFTR): did not further increase current

CCN(c1ccccc1)S(=O)(=O)c1ccc2[nH]cc(C(=O)NCc3ccccc3OC)c(=O)c2c1 [Compound P3]
short-circuit current response when added after VX-770 (Q1313X-CFTR): did not elevate current
short-circuit current response when added after VX-770 (N1303K-CFTR): did not further increase current

NC(=O)c1c(NC(=O)c2ccccc2Cl)sc2c1CCCC2 [Compound P5]
short-circuit current response when added after VX-770 (Q1313X-CFTR): did not elevate current
short-circuit current response when added after VX-770 (N1303K-CFTR): did not further increase current

Cc1cc(C)cc(N(Cc2ccc(Cl)cc2)S(=O)(=O)c2cccn3c(C)nnc23)c1 [W1282Xpot-C01]
activation by two Class II potentiators added together (N1303K-CFTR; 20 μM W1282Xpot-C01 and 20 μM ASP-11, no Class I potentiator): little activation
short-circuit current response when added after VX-770 (N1303K-CFTR): activated N1303K-CFTR

O=c1cc(-c2ccc(O)cc2)oc2cc(O)cc(O)c12 [apigenin]
short-circuit current response when added after VX-770 (Q1313X-CFTR): showed synergy
short-circuit current response when added after GLPG1837 (Q1313X-CFTR; 20 μM GLPG1837): showed synergy

From PMC6881293, “Nanomolar-potency ‘co-potentiator’ therapy for cystic fibrosis caused by a defined subset of minimal function CFTR mutants” (Scientific Reports, 2019)
